Laboratory results as given in US10358435B2, “Triazolyl pyrimidinone compounds as PDE2 inhibitors” (Merck Sharp & Dohme Corp., priority 2015, dated 2019).

How the values were obtained:
human PDE2A1 = human PDE2A1 (Homo sapiens (Human), UniProt O00408); assay: IMAP fluorescence polarization assay, human PDE2A1 (PDE selectivity panel); format: biochemical; conditions: for Ki: FAM cAMP 50 nM with 1000 nM cGMP
In short: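 GST-tagged human PDE2A1 from insect cells; enzyme set to ~20% conversion of 50 nM FAM-cAMP with 1000 nM cGMP, 60 min at room temperature in pH 7.2 Tris/MgCl2/DTT buffer, ten 3-fold compound dilutions. IMAP FP read, apparent Ki derived using apparent KM 10,000 nM.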

Rhesus PDE2A3 = Rhesus PDE2A3 (Macaca mulatta, UniProt B3VTJ2); assay: IMAP fluorescence polarization assay, rhesus PDE2A3 lysate from transfected AD293 cells; format: biochemical, rhesus macaque; conditions: FAM-labeled cAMP 50 nM, activator cGMP 1 uM; read-out: Rhesus PDE2 Ki
Procedure: The activity of the compounds in accordance with the present invention as PDE2 inhibitors may be readily determined using a fluorescence polarization (FP) methodology (Huang, W., et al., J. Biomol Screen, 2002, 7: 215).
In a typical experiment the PDE2 inhibitory activity of the compounds of the present invention was determined in accordance with the following experimental method. Rhesus PDE2A3 was amplified from rhesus macaque brain cDNA (Biochain Institute, Hayward, Calif.) using primers based on human PDE2A sequence (accession NM_002599.3) where the forward primer containing a Kozak consensus was 5′-[…]-3′ and the reverse primer was 5′-[…]-3′. Amplification with Easy-A High-Fidelity PCR cloning enzyme (Stratagene, La Jolla, Calif.) was 95° C. for 2 minutes followed by thirty three cycles of 95° C. for 40 seconds, 52° C. for 30 seconds, and 72° C. for 2 minutes 48 seconds. Final extension was 72° C. for 7 minutes. The PCR product was TA cloned into pcDNA3.3-TOPO (Invitrogen, Carlsbad, Calif.) according to standard protocol. A consensus sequence was developed from multiple clones and then deposited into GenBank (EU812167). AD293 cells (Stratagene, La Jolla, Calif.) with 70-80% confluency were transiently transfected with rhesus PDE2A3/pcDNA3.3-TOPO using Lipofectamine 2000 according to manufacturer specifications (Invitrogen, Carlsbad, Calif.). Cells were harvested 48 hours post-transfection and lysed by sonication (setting 3, 10×5 sec pulses) in a buffer containing 20 mM HEPES pH 7.4, 1 mM EDTA and Complete Protease Inhibitor Cocktail Tablets (Roche, Indianapolis, Ind.). Lysate was collected by centrifugation at 75,000×g for 20 minutes at 4° C. and supernatant utilized for evaluation of PDE2 activity. The fluorescence polarization assay for cyclic nucleotide phosphodiesterases was performed using an IMAP® FP kit supplied by Molecular Devices, Sunnyvale, Calif. (product # R8139). […] Assays were performed at room temperature in 384-well microtiter plates with an incubation volume of 20.2 μL. Solutions of test compounds were prepared in DMSO and serially diluted with DMSO to yield 8 μL of each of 10 solutions differing by 3-fold in concentration, at 32 serial dilutions per plate. […] 0% of inhibition is determined by using DMSO (1% final concentrations).
A Labcyte Echo 555 (Labcyte, Sunnyvale, Calif.) is used to dispense 200 nL from each well of the titration plate to the 384 well assay plate. Ten microliters of a solution of enzyme (1/2000 final dilution from aliquots; sufficient to produce 20% substrate conversion) was added to the assay plate. Next 10 uL of a separate solution of the substrate FAM-labeled cAMP (50 nM final concentration product # R7506 from Molecular Devices) and the activator cGMP (1 uM final concentration), prepared in the assay buffer (10 mM Tris HCl, pH 7.2, 10 mM MgCl2, 0.05% NaN3 0.01% Tween-20, and 1 mM DTT) was added to the assay plate and shaken to mix. The reaction is allowed to proceed at room temperature for 60 minutes. A binding solution is then made from the kit components, comprised of 80% Solution A, 20% Solution B and binding reagent at a volume of 1/600 the total binding solution. The enzymatic reaction is stopped by addition of 60 μL of the binding solution to each well of the assay plates and the plates are sealed and shaken for 30 seconds. The plate was incubated at room temperature for at least one hour prior to determining the fluorescence polarization (FP). The parallel and perpendicular fluorescence of each well of the plate was measured using a Tecan Genios Pro plate reader (Tecan, Switzerland) or Perkin Elmer EnVision™ plate reader (Waltham, Mass.). Fluorescence polarization (mP) was calculated from the parallel (S) and perpendicular (P) fluorescence of each sample well and the analogous values for the median control well, containing only substrate (So and Po), using the following equation: Polarization (mP)=1000*(S/So−P/Po)/(S/So+P/Po).

other PDE isoforms = conditions: reported in Brandon et al. 2007; cited from earlier work
[1] = reported in Brandon et al. 2007; cited from earlier work

human PDE2A1, sequence (O00408 other isoform, or with tags, fused parts or gaps): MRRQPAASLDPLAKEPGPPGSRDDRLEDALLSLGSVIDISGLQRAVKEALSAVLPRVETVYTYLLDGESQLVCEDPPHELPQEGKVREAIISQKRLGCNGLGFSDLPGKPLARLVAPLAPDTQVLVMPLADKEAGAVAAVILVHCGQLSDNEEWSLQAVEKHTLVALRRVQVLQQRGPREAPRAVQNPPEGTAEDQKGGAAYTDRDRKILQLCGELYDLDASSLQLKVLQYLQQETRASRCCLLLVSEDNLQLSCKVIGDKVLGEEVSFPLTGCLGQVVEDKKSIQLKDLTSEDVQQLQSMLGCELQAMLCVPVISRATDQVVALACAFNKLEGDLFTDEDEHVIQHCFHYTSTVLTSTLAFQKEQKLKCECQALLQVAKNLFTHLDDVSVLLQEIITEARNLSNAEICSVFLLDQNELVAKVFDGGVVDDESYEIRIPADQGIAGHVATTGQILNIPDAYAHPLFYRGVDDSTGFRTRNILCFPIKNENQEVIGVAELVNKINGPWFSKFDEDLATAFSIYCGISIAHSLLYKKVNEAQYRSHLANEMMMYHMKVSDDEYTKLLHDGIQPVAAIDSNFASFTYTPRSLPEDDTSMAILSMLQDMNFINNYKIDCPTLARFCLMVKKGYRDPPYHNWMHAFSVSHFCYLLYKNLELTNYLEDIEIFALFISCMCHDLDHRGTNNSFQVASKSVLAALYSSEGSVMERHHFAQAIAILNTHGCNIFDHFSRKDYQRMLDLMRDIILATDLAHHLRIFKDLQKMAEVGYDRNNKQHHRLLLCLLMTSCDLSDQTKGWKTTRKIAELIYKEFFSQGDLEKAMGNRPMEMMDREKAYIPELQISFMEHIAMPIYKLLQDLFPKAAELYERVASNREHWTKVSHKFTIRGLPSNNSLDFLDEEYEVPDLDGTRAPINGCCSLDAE
Rhesus PDE2A3, sequence (B3VTJ2 1-941): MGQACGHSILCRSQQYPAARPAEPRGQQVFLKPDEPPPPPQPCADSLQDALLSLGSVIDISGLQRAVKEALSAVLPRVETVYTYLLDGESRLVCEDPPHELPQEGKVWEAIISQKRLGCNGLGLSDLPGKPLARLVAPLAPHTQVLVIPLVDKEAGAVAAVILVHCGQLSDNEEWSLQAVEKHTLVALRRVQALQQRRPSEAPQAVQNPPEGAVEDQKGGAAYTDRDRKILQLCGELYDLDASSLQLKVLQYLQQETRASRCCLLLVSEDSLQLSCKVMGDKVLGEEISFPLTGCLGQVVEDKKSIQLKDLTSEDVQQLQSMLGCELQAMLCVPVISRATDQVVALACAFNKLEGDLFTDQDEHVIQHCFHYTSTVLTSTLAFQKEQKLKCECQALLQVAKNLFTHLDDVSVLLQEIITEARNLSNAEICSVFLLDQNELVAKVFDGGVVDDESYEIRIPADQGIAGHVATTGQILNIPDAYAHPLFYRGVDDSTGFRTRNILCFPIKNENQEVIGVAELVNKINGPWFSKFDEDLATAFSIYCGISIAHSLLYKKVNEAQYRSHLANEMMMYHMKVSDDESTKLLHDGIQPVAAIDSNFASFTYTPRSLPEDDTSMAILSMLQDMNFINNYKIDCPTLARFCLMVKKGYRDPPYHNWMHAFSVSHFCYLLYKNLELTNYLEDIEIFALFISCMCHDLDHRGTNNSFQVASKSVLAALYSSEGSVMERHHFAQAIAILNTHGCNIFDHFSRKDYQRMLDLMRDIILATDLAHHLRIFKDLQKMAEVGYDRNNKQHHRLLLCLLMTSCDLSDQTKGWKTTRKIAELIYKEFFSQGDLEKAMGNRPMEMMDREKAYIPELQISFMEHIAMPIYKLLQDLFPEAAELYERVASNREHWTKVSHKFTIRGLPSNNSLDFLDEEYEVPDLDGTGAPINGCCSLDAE

SMILES	Ki (human PDE2A1)	Ki (Rhesus PDE2A3)	potency at other PDE isoforms (other PDE isoforms)	brain penetration [1]	inhibition at 3 µM (human PDE2A1)
Cc1nc(-c2nnn3c2CCC[C@]3(C)c2ccc(C(F)(F)F)cc2Cl)cc(=O)[nH]1 (single isomer, unassigned) [Example 87]	1.2 nM	1.8 nM	–	–	–
Cc1nc(-c2cn(C(C)c3ccc(C(F)(F)F)cc3F)nn2)cc(=O)[nH]1 (single isomer, unassigned) [Example 28, (S)- or (R)-6-(1-(1-(2-fluoro-4-(trifluoromethyl)phenyl)ethyl)-1H-1,2,3-triazol-4-yl)-2-methylpyrimidin-4(3H)-one]	7 nM	9 nM	–	–	–
CC(c1ccc(C(F)(F)F)cc1F)n1cc(-c2cc(=O)[nH]c(Cc3ccccc3)n2)nn1 (stereo not shown) [Example 12]	8.4 nM	8.9 nM	–	–	–
Cc1nc(-c2cn(C3(c4ccc(C(F)(F)F)cc4Cl)CCC3)nn2)cc(=O)[nH]1 [Example 29, 6-(1-(1-(2-Chloro-4-(trifluoromethyl)phenyl)cyclobutyl)-1H-1,2,3-triazol-4-yl)-2-methylpyrimidin-4(3H)-one]	0.53 nM	0.63 nM	–	–	–
Cc1nc(-c2cn(C(C)c3ccc(C(F)(F)F)c(F)c3F)nn2)cc(=O)[nH]1 (single isomer, unassigned) [Example 21, (R)- or (S)-6-(1-(1-(2,3-difluoro-4-(trifluoromethyl)phenyl)ethyl)-1H-1,2,3-triazol-4-yl)-2-methylpyrimidin-4(3H)-one]	2.6 nM	3.9 nM	–	–	–
Cc1nc(-c2cn(C(C)c3ccc(C(F)(F)F)cc3)nn2)cc(=O)[nH]1 (single isomer, unassigned) [Example 18, (S)- or (R)-2-methyl-6-(1-(1-(4-(trifluoromethyl)phenyl)ethyl)-1H-1,2,3-triazol-4-yl) pyrimidin-4(3H)-one]	47 nM	54.8 nM	–	–	–
Cc1nc(-c2nnc(C(C)c3ccc(C(F)(F)F)cc3)[nH]2)cc(=O)[nH]1 (stereo not shown) [Example 60, 2-Methyl-6-(5-(1-(4-(trifluoromethyl)phenyl)ethyl)-4H-1,2,4-triazol-3-yl)pyrimidin-4(3H)-one]	–	204 nM	–	–	–
Cc1nc(-c2nnc3n2CCC[C@]3(C)c2ccc(C(F)(F)F)cc2F)cc(=O)[nH]1 (single isomer, unassigned) [Example 81]	0.93 nM	1.7 nM	–	–	–
Cc1nc(-c2cn(C(C)c3ccc(OC(F)(F)F)cc3)nn2)cc(=O)[nH]1 (stereo not shown) [Example 11, 2-methyl-6-(1-(1-(4-(trifluoromethoxy)phenyl)ethyl)-1H-1,2,3-triazol-4-yl) pyrimidin-4(3H)-one]	55.8 nM	50.4 nM	–	–	–
Cc1nc(-c2cn([C@H](C)c3ccc(C(F)(F)F)cc3C)nn2)cc(=O)[nH]1 (single isomer, unassigned) [Example 9]	6.9 nM	9.4 nM	–	–	–
Cc1nc(-c2cn(C(C)c3ccc(S(F)(F)(F)(F)F)cc3)nn2)cc(=O)[nH]1 (stereo not shown) [Example 16, 2-methyl-6-(1-(1-(4-(pentafluorosulfanyl)phenyl)ethyl)-1H-1,2,3-triazol-4-yl)pyrimidin-4(3H)-one]	37.8 nM	39.4 nM	–	–	–
Cc1nc(-c2nnn3c2CCC3(C)c2ccc(C(F)(F)F)cc2F)cc(=O)[nH]1 (single isomer, unassigned) [Example 97, (R)- or (S)-6-(6-(2-Fluoro-4-(trifluoromethyl)phenyl)-6-methyl-5,6-dihydro-4H-pyrolo[1,2-c][1,2,3]triazol-3-yl)-2-methylpyrimidin-4(3H)-one]	1.5 nM	1.3 nM	–	–	–
Cc1nc(-c2cn(C(C)c3ccc(OC(F)(F)F)cc3F)nn2)cc(=O)[nH]1 (stereo not shown) [Example 13, 6-(1-(1-(2-fluoro-4-(trifluoromethoxy)phenyl)ethyl)-1H-1,2,3-triazol-4-yl)-2-methylpyrimidin-4(3H)-one]	76.8 nM	98.9 nM	–	–	–
COc1ccc(Cc2nc(-c3nnn4c3CCC[C@]4(C)c3ccc(C(F)(F)F)cc3F)cc(=O)[nH]2)cc1 (single isomer, unassigned) [Example 89]	0.4 nM	0.63 nM	–	–	–
Cc1nc(-c2cn(C(C)c3ccc(C(F)(F)F)cc3)nn2)cc(=O)[nH]1 (single isomer, unassigned) [Example 17, (R)- or (S)-2-methyl-6-(1-(1-(4-(trifluoromethyl)phenyl)ethyl)-1H-1,2,3-triazol-4-yl) pyrimidin-4(3H)-one]	36.2 nM	44.7 nM	–	–	–
CCc1ccc(C(C)(C)n2cc(-c3cc(=O)[nH]c(C)n3)nn2)c(Cl)c1 [Example 32, 6-(1-(2-(2-chloro-4-ethylphenyl)propan-2-yl)-1H-1,2,3-triazol-4-yl)-2-methylpyrimidin-4(3H)-one]	1.6 nM	2.1 nM	–	–	–
CC(c1ccc(C(F)(F)F)cc1F)n1cc(-c2cc(=O)[nH]c(CC3CC3)n2)nn1 (stereo not shown) [Example 14, 2-(cyclopropylmethyl)-6-(1-(1-(2-fluoro-4-(trifluoromethyl)phenyl)ethyl)-1H-1,2,3-triazol-4-yl)pyrimidin-4(3H)-one]	20.9 nM	24.9 nM	–	–	–
CC/C=C/c1nc(-c2cn(C(C)c3ccc(C(F)(F)F)cc3F)nn2)cc(=O)[nH]1 (stereo not shown) [Example 15, (E)-2-(but-1-enyl)-6-(1-(1-(2-fluoro-4-(trifluoromethyl)phenyl)ethyl)-1H-1,2,3-triazol-4-yl)pyrimidin-4(3H)-one]	4.7 nM	6.5 nM	–	–	–
CCc1ccc(C(C)n2cc(-c3cc(=O)[nH]c(C)n3)nn2)c(Cl)c1 (single isomer, unassigned) [Example 19, (R)- or (S)-6-(1-(1-(2-chloro-4-ethylphenyl)ethyl)-1H-1,2,3-triazol-4-yl)-2-methylpyrimidin-4(3H)-one]	2.1 nM	3.4 nM	–	–	–
COc1ccc(Cc2nn3c([C@@H](CCCc4ccccc4)[C@@H](C)O)nc(C)c3c(=O)[nH]2)cc1OC [Bay 60-7550]	–	–	significant potency	limited brain penetration	–
Cc1nc(-c2nnn([C@H](C)c3ccc(C(F)(F)F)cc3Cl)c2C)cc(=O)[nH]1 (mixture of isomers) [Example 44, (R)- and (S)-6-(1-(1-(2-Chloro-4-(trifluoromethyl)phenyl)-ethyl)-5-methyl-1H-1,2,3-triazol-4-yl)-2-methylpyrimidin-4(3H)-one]	–	–	–	–	44%
